Test results published in patent US20220323406A1, “METHODS AND COMPOSITIONS FOR DIFFERENTIATING STEM CELLS” (Massachusetts Institute of Technology, priority 2019, published 2022).

Assays:
[1] = test system: ENR+CD organoids (ISC to Paneth cell differentiation); test: Primary screen: CCh-stimulated lysozyme secretion LYZ.S, 2.5-D 384-well ENR+CD organoid differentiation; format: cell-based, mouse; conditions: primary screen
Description: (§1) High-throughput screening.

[2] = test system: ENR+CD organoids (ISC to Paneth cell differentiation); test: Primary screen: basal (non-stimulated) lysozyme secretion LYZ.NS, 2.5-D 384-well ENR+CD organoid differentiation; format: cell-based, mouse
Description: as §1

ENR+CD organoids = test: Primary screen: ATP (CellTiter-Glo 3D, CTG) cell number/viability, 2.5-D 384-well ENR+CD organoids;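 note: compounds given at plating and again on day 3 over a 6-day differentiation from ENR+CV stem-cell-enriched precursors, ATP measured on day 6, plate median as control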
[3] = dose 0.08 uM, FC relative to plate median
[4] = dose 0.40 uM, FC relative to plate median
[5] = dose 2.00 uM, FC relative to plate median
[6] = dose 10.00 uM, FC relative to plate median
[7] = primary screen, dose 0.08 uM, FC relative to plate median
[8] = primary screen, dose 0.08 uM, standard z score
[9] = primary screen, dose 0.40 uM, FC relative to plate median
[10] = primary screen, dose 0.40 uM, standard z score
[11] = primary screen, dose 2.00 uM, FC relative to plate median
[12] = primary screen, dose 2.00 uM, standard z score
[13] = primary screen, dose 10.00 uM, FC relative to plate median
[14] = primary screen, dose 10.00 uM, standard z score
[15] = primary screen, standard z score, dose 0.08 uM
[16] = primary screen, standard z score, dose 0.40 uM
[17] = primary screen, standard z score, dose 2.00 uM
[18] = primary screen, standard z score, dose 10.00 uM

Compound	Dose.FC.LYZ.S ([1]; dose 0.08 uM)	Dose.FC.LYZ.S ([1]; dose 0.40 uM)	Dose.FC.LYZ.S ([1]; dose 2.00 uM)	Dose.FC.LYZ.S ([1]; dose 10.00 uM)	Dose.FC.LYZ.NS ([2]; primary screen, dose 0.08 uM)	Z.LYZ.NS (standard z score) ([2]; primary screen, dose 0.08 uM)	Dose.FC.LYZ.NS ([2]; primary screen, dose 0.40 uM)	Z.LYZ.NS (standard z score) ([2]; primary screen, dose 0.40 uM)	Dose.FC.LYZ.NS ([2]; primary screen, dose 2.00 uM)	Z.LYZ.NS (standard z score) ([2]; primary screen, dose 2.00 uM)	Dose.FC.LYZ.NS ([2]; primary screen, dose 10.00 uM)	Z.LYZ.NS (standard z score) ([2]; primary screen, dose 10.00 uM)	Dose.FC.CTG (ENR+CD organoids; primary screen, dose 0.08 uM)	Dose.FC.CTG (ENR+CD organoids; primary screen, dose 0.40 uM)	Dose.FC.CTG (ENR+CD organoids; primary screen, dose 2.00 uM)	Dose.FC.CTG (ENR+CD organoids; primary screen, dose 10.00 uM)	Dose.FC.LYZ.S [1, 3]	Dose.FC.LYZ.S [1, 4]	Dose.FC.LYZ.S [1, 5]	Dose.FC.LYZ.S [1, 6]	also measured
CN(C)Cc1ccc(-c2nc3cccc4c3n2CCNC4=O)cc1 [AG-14361]	0.100 log2 fold change	−0.001 log2 fold change	−0.065 log2 fold change	−0.189 log2 fold change	0.152 log2 fold change	1.324	0.036 log2 fold change	0.312	0.032 log2 fold change	0.278	−0.197 log2 fold change	−1.713	−0.012 log2 fold change	−0.069 log2 fold change	0.005 log2 fold change	−0.021 log2 fold change	–	–	–	–	Z.CTG (standard z score) (ENR+CD organoids; primary screen, dose 0.08 uM): −0.028; Z.CTG (standard z score) (ENR+CD organoids; primary screen, dose 0.40 uM): −0.165; Z.CTG (standard z score) (ENR+CD organoids; primary screen, dose 2.00 uM): 0.012; Z.CTG (standard z score) (ENR+CD organoids; primary screen, dose 10.00 uM): −0.050
CC[C@H](NC(=O)[C@H](C)NC)C(=O)N1C[C@@H](O)C[C@H]1Cc1c(-c2[nH]c3cc(F)ccc3c2C[C@@H]2C[C@H](O)CN2C(=O)[C@H](CC)NC(=O)[C@H](C)NC)[nH]c2cc(F)ccc12 [Birinapant]	0.075 log2 fold change	0.103 log2 fold change	0.011 log2 fold change	−0.080 log2 fold change	0.032 log2 fold change	0.281	−0.012 log2 fold change	−0.102	0.036 log2 fold change	0.317	−0.029 log2 fold change	−0.256	−0.257 log2 fold change	0.095 log2 fold change	0.227 log2 fold change	0.123 log2 fold change	–	–	–	–	–
Cc1cc(NC(=O)Nc2ccc(N(C)C)cc2)c2cc(F)cc(F)c2n1 [SB408124]	–	–	–	–	–	–	–	–	–	–	–	–	–	–	–	–	0.198 log2 fold change	0.193 log2 fold change	0.082 log2 fold change	−0.148 log2 fold change	Dose.FC.LYZ.NS [2, 7]: 0.172 log2 fold change; Z.LYZ.NS [2, 8]: 1.494; Dose.FC.LYZ.NS [2, 9]: 0.134 log2 fold change; Z.LYZ.NS [2, 10]: 1.168; Dose.FC.LYZ.NS [2, 11]: 0.084 log2 fold change; Z.LYZ.NS [2, 12]: 0.730; Dose.FC.LYZ.NS [2, 13]: −0.070 log2 fold change; Z.LYZ.NS [2, 14]: −0.607; Dose.FC.CTG (ENR+CD organoids; [7]): 0.410 log2 fold change; Z.CTG (ENR+CD organoids; [8]): 0.978; Dose.FC.CTG (ENR+CD organoids; [9]): 0.334 log2 fold change; Z.CTG (ENR+CD organoids; [10]): 0.799; Dose.FC.CTG (ENR+CD organoids; [11]): 0.364 log2 fold change; Z.CTG (ENR+CD organoids; [12]): 0.869; Dose.FC.CTG (ENR+CD organoids; [13]): 0.091 log2 fold change; Z.CTG (ENR+CD organoids; [14]): 0.216
O=c1[nH]c2ccc(Cl)cc2c(N[C@@H]2CN3CCC2CC3)c1-c1nc2ccccc2[nH]1 [CHIR-124]	−0.267 log2 fold change	−0.339 log2 fold change	−0.352 log2 fold change	−0.332 log2 fold change	−0.155 log2 fold change	–	−0.240 log2 fold change	–	−0.220 log2 fold change	–	−0.140 log2 fold change	–	−0.256 log2 fold change	−0.853 log2 fold change	−0.861 log2 fold change	−1.555 log2 fold change	–	–	–	–	Z.LYZ.NS [2, 15]: −1.352; Z.LYZ.NS [2, 16]: −2.090; Z.LYZ.NS [2, 17]: −1.916; Z.LYZ.NS [2, 18]: −1.223; Z.CTG (ENR+CD organoids; [15]): −0.612; Z.CTG (ENR+CD organoids; [16]): −2.038; Z.CTG (ENR+CD organoids; [17]): −2.057; Z.CTG (ENR+CD organoids; [18]): −3.714
SNS-314 Mesylate	–	–	–	–	–	–	–	–	–	–	–	–	–	–	–	–	−0.115 log2 fold change	−0.103 log2 fold change	−0.133 log2 fold change	−0.198 log2 fold change	Dose.FC.LYZ.NS [2, 7]: −0.071 log2 fold change; Z.LYZ.NS [2, 8]: −0.620; Dose.FC.LYZ.NS [2, 9]: −0.059 log2 fold change; Z.LYZ.NS [2, 10]: −0.515; Dose.FC.LYZ.NS [2, 11]: −0.128 log2 fold change; Z.LYZ.NS [2, 12]: −1.111; Dose.FC.LYZ.NS [2, 13]: −0.127 log2 fold change; Z.LYZ.NS [2, 14]: −1.109; Dose.FC.CTG (ENR+CD organoids; [7]): −0.666 log2 fold change; Z.CTG (ENR+CD organoids; [8]): −1.591; Dose.FC.CTG (ENR+CD organoids; [9]): −0.777 log2 fold change; Z.CTG (ENR+CD organoids; [10]): −1.857; Dose.FC.CTG (ENR+CD organoids; [11]): −0.478 log2 fold change; Z.CTG (ENR+CD organoids; [12]): −1.142; Dose.FC.CTG (ENR+CD organoids; [13]): −0.620 log2 fold change; Z.CTG (ENR+CD organoids; [14]): −1.480
COc1ccccc1Oc1c(NS(=O)(=O)c2ccc(C(C)(C)C)cc2)nc(-c2ncccn2)nc1OCCO [Bosentan Hydrate]	0.145 log2 fold change	0.100 log2 fold change	0.014 log2 fold change	0.045 log2 fold change	0.090 log2 fold change	0.785	0.068 log2 fold change	0.589	0.039 log2 fold change	0.337	0.058 log2 fold change	0.508	0.204 log2 fold change	0.207 log2 fold change	0.121 log2 fold change	0.085 log2 fold change	–	–	–	–	–
S3I-201	–	–	–	–	–	–	–	–	–	–	–	–	–	–	–	–	0.033 log2 fold change	0.157 log2 fold change	−0.004 log2 fold change	−0.052 log2 fold change	Dose.FC.LYZ.NS [2, 7]: 0.051 log2 fold change; Z.LYZ.NS [2, 8]: 0.445; Dose.FC.LYZ.NS [2, 9]: 0.061 log2 fold change; Z.LYZ.NS [2, 10]: 0.527; Dose.FC.LYZ.NS [2, 11]: 0.024 log2 fold change; Z.LYZ.NS [2, 12]: 0.212; Dose.FC.LYZ.NS [2, 13]: −0.016 log2 fold change; Z.LYZ.NS [2, 14]: −0.143; Dose.FC.CTG (ENR+CD organoids; [7]): 0.321 log2 fold change; Z.CTG (ENR+CD organoids; [8]): 0.766; Dose.FC.CTG (ENR+CD organoids; [9]): 0.160 log2 fold change; Z.CTG (ENR+CD organoids; [10]): 0.382; Dose.FC.CTG (ENR+CD organoids; [11]): 0.079 log2 fold change; Z.CTG (ENR+CD organoids; [12]): 0.188; Dose.FC.CTG (ENR+CD organoids; [13]): −0.140 log2 fold change; Z.CTG (ENR+CD organoids; [14]): −0.334
CCc1c2c(nc3ccc(OC(=O)N4CCC(N5CCCCC5)CC4)cc13)-c1cc3c(c(=O)n1C2)COC(=O)[C@]3(O)CC [Irinotecan]	–	–	–	–	–	−0.272	–	−0.630	–	−1.476	–	−1.417	–	–	–	–	–	–	–	–	Dose.FC.LYZ.S (log2 fold change) ([1]; dose 0.08 uM): −0.004; Dose.FC.LYZ.S (log2 fold change) ([1]; dose 0.40 uM): −0.145; Dose.FC.LYZ.S (log2 fold change) ([1]; dose 2.00 uM): −0.247; Dose.FC.LYZ.S (log2 fold change) ([1]; dose 10.00 uM): −0.251; Dose.FC.LYZ.NS (log2 fold change) ([2]; primary screen, dose 0.08 uM): −0.031; Dose.FC.LYZ.NS (log2 fold change) ([2]; primary screen, dose 0.40 uM): −0.072; Dose.FC.LYZ.NS (log2 fold change) ([2]; primary screen, dose 2.00 uM): −0.170; Dose.FC.LYZ.NS (log2 fold change) ([2]; primary screen, dose 10.00 uM): −0.163; Dose.FC.CTG (log2 fold change) (ENR+CD organoids; primary screen, dose 0.08 uM): −0.111; Dose.FC.CTG (log2 fold change) (ENR+CD organoids; primary screen, dose 0.40 uM): −0.784; Dose.FC.CTG (log2 fold change) (ENR+CD organoids; primary screen, dose 2.00 uM): −0.785; Dose.FC.CTG (log2 fold change) (ENR+CD organoids; primary screen, dose 10.00 uM): −1.235
